Experimental data reported in patent US10813914B2, “Composition for controlling microsporidia in fishes and method for controlling microsporidia in fishes using same” (MARUHA NICHIRO CORPORATION, priority 2016, dated 2020).
Marks after values point to notes of the source that are not given here.

How the values were obtained:
[1] = test system: microsporidian cyst (beko cyst), beko disease; test: Prevention test using albendazole (1) (1-3); format: in vivo, “Mojako” (yellowtail larva); settings: 20 mg/kg Bw oral, 6 times/week
Procedure: 1-3. Prevention Test Using Albendazole (1)
(§1) A preliminary test was carried out according to the following procedure:
(§2) Test number: Live 1000 fishes (each initial body weight: 7 g)
(§3) Administration method: oral administration (feed together with spreading agent)
(§4) Drug used: albendazole (compound represented by the above-described formula (3))
(§5) Administration amount: 20 mg/kg Bw (20 mg per kg of fish body weight)
(§6) Administration interval: 6 times/week
A sampling test was carried out according to the following procedure:
Every two weeks from the start of administration, each 20 fishes of “Mojako” were taken out from each test group (100 fishes of “Mojako” at 8 weeks after the start of administration) and each fish was cut into three pieces. It was then visually tested whether the microsporidian cyst (beko cyst) was found in the pieces. When the beko cyst was observed, it was judged as positive and the test results were accumulated. Regarding the beko cyst that could be confirmed with the naked eye, the number was confirmed and the average infection number per one fish was determined.

[2] = Weight, deaths and food intake of Mojako in prevention test 1-3; format: in vivo, “Mojako” (yellowtail larva); parameters: Weight of Mojako: unit: g; settings: 20 mg/kg Bw oral, 6 times/week
Procedure: as §1, §2, §5, §6

[3] = test system: microsporidian cyst (beko cyst), beko disease; test: Prevention test using albendazole (2), reduced dose (1-4); format: in vivo, “Mojako” (yellowtail larva); settings: out of 100 fishes at 8 weeks after the start of administration
Procedure: Albendazole administration and a sampling test were carried out in the same procedure as in the above-described 1-3 except that the administration amount of albendazole was reduced to 5 or 10 mg/kg Bw. In the 10 mg/kg administration group, the number of (positive) individuals showing generation of the beko cyst was 0 out of 100 fishes of “Mojako” at 8 weeks after the start of administration. When the administration amount of albendazole was reduced to 5 mg/kg Bw, generation of the beko cyst was confirmed in 3 out of 100 fishes of “Mojako” at 8 weeks after the start of administration.

[4] = test system: microsporidian cyst (beko cyst), beko disease; test: Prevention test using albendazole (3), 16 weeks administration (1-5); format: in vivo, “Mojako” (yellowtail larva); parameters: Negative: unit not given here
Procedure: Administration of albendazole was continued for 16 weeks and a sampling test was performed at 2 weeks, 4 weeks, 6 weeks, 8 weeks, 12 weeks and 16 weeks after the start of administration in the same procedure as in the above-described 1-3. The sampling test was carried out in the same procedure also at 4 weeks after the termination of administration of albendazole (20 weeks after the start of administration).

[5] = test system: microsporidian cyst (beko cyst), beko disease; test: Prevention test using albendazole (4), two administration methods (1-6); format: in vivo, “Mojako” (yellowtail larva)
Procedure: A preliminary test was conducted using two administration methods including different administration amounts of albendazole per one operation and different administration intervals. The preliminary test was performed according to the following procedure:
as §2, §3, §4
Test group 1: 20 mg/kg Bw (20 mg per kg of fish body weight)
Test group 2: 40 mg/kg Bw (40 mg per kg of fish body weight)
Test group 1: 6 times/week (administered for 16 weeks)
Test group 2: 2 times/2 week (administered for 16 weeks)
A sampling test was carried out according to the same procedure as in the above-described 1-5.

[6] = test system: microsporidian cyst (beko cyst), beko disease; test: Prevention test using albendazole (5) in Kanpachi (1-7); format: in vivo, “Kanpachi” (great amberjack); settings: 40 mg/kg Bw oral, 6 times/week
Procedure: A prevention test against the beko disease by administering albendazole was carried out using “Kanpachi” instead of “Mojako”.
A preliminary test was performed according to the following procedure:
Test number: Live 1000 fishes (each initial body weight: 50 g)
as §3, §4
Administration amount: 40 mg/kg Bw (40 mg per kg of fish body weight)
as §6
Sampling test procedure: same as in the above-described 1-1

beko cyst, beko disease = test: Treatment test of Mojako infected with beko disease using albendazole (2-1); format: in vivo, “Mojako” (yellowtail larva); settings: 50 mg/kg Bw oral, 6 times/week
Procedure: 2-1: Test by Treating “Mojako” Infected with Beko Disease Using Albendazole
A treatment test was carried out according to the following procedure.
Test number: Live 1000 fishes (test samples showing apparent infection with beko disease according to visual test at the time of vaccine inoculation were selected and tested)
as §3, §4
Administration amount: 50 mg/kg Bw (50 mg per kg of fish body weight)
as §6
Samples of “Mojako” showing irregularities on the body surface with certainty of beko infection in visual test at the time of vaccine inoculation were selected and divided randomly into the control group and the test group.

microsporidia = settings: culture test, Non-Patent Documents 3 to 7; cited from earlier work
[7] = 20 mg/kg Bw oral, 6 times/week, 2 Weeks
[8] = 20 mg/kg Bw oral, 6 times/week, 4 Weeks
[9] = 20 mg/kg Bw oral, 6 times/week, 6 Weeks
[10] = 20 mg/kg Bw oral, 6 times/week, 8 Weeks
[11] = 20 mg/kg Bw oral, 6 times/week, 12 Weeks
[12] = 20 mg/kg Bw oral, 6 times/week, 16 Weeks
[13] = 20 Weeks after start = 4 weeks after termination of 16-week administration

CCCSc1ccc2nc(NC(=O)OC)[nH]c2c1 [Albendazole, albendazole]
Positive fishes (beko cyst) / fishes sampled ([1]; 2 week): 0/20
Positive fishes (beko cyst) / fishes sampled ([1]; 4 Weeks): 0/20
Positive fishes (beko cyst) / fishes sampled ([1]; 6 weeks, p < 0.05): 0/20*
Positive fishes (beko cyst) / fishes sampled ([1]; 8 weeks, p < 0.01): 0/100**
Positive fishes (beko cyst) / fishes sampled ([1]; Total of 2-8 weeks, p < 0.01): 0/160**
Positive fishes (beko cyst) / fishes sampled ([1]; Total of 2-8 weeks, p < 0.01, listed as albendazole): no positive was found
Increase in the number of deaths and decline in food intake with respect to the control group ([2]; administration period): not recognized
Weight of Mojako ([2]; 0 week): 7 ± 0.53
Weight of Mojako ([2]; 2 Weeks): 18 ± 2.38
Weight of Mojako ([2]; 4 Weeks): 29 ± 4.16
Weight of Mojako ([2]; 6 Weeks): 51 ± 7.13
Body weight compared with the control group ([2]; 8 Weeks): significant increase in body weight
Influence on the growth of Mojako ([2]; 8 Weeks): does not exert a harmful influence on the growth
Weight of Mojako ([2]; 8 Weeks): 73 ± 12.6
Number of (positive) individuals showing generation of the beko cyst ([3]; 5 mg/kg Bw oral): 3
Number of (positive) individuals showing generation of the beko cyst ([3]; 10 mg/kg Bw oral): 0
Infection rate [4, 7]: 0%
Negative [4, 7]: 20
Positive [4, 7]: 0
Infection rate [4, 8]: 0%
Negative [4, 8]: 20
Positive [4, 8]: 0
Negative [4, 9]: 20
Positive [4, 9]: 0
Infection rate ([4]; 20 mg/kg Bw oral, 6 times/week, 6 weeks, p < 0.05): 0%*
Negative [4, 10]: 100
Positive [4, 10]: 0
Infection rate ([4]; 20 mg/kg Bw oral, 6 times/week, 8 weeks, p < 0.01): 0%**
Negative [4, 11]: 40
Positive [4, 11]: 0
Infection rate ([4]; 20 mg/kg Bw oral, 6 times/week, 12 Weeks, p < 0.01): 0%**
Negative [4, 12]: 46
Positive [4, 12]: 0
Infection rate ([4]; 20 mg/kg Bw oral, 6 times/week, 16 Weeks, p < 0.01): 0%**
Negative [4, 13]: 30
Positive [4, 13]: 0
Infection rate ([4]; 20 Weeks after start = 4 weeks after termination of 16-week administration, p < 0.01): 0%**
Negative ([4]; Total until 16 weeks): 246
Positive ([4]; Total until 16 weeks): 0
Infection rate ([4]; Total until 16 weeks, p < 0.01): 0%**
Time the effect of preventing infection with microsporidia continues after administration was terminated ([4]; after 16 weeks of 20 mg/kg Bw oral, 6 times/week): at least 4 weeks
Positive fishes (beko cyst) / fishes sampled ([5]; Test group 1: 20 mg/kg Bw, 6 times/week for 16 weeks, 8 Weeks, p < 0.001): 0/50***
Positive fishes (beko cyst) / fishes sampled ([5]; Test group 1: 20 mg/kg Bw, 6 times/week for 16 weeks, 16 Weeks, p < 0.0001): 0/70****
Positive fishes (beko cyst) / fishes sampled ([5]; Test group 1: 20 mg/kg Bw, 6 times/week for 16 weeks, 24 Weeks (8 weeks after termination), 20 mg/kg): 16/50
Positive fishes (beko cyst) / fishes sampled ([5]; Test group 1: 20 mg/kg Bw, 6 times/week for 16 weeks, 24 Weeks (8 weeks after termination), listed as albendazole, 20 mg/kg): did not continue until 8 weeks after termination of administration
Positive fishes (beko cyst) / fishes sampled ([5]; Test group 1: 20 mg/kg Bw, 6 times/week for 16 weeks, at administration start time): 0/20
Positive fishes (beko cyst) / fishes sampled ([5]; Test group 2: 40 mg/kg Bw, 2 times/2 week for 16 weeks, 8 Weeks, p < 0.001): 0/50***
Positive fishes (beko cyst) / fishes sampled ([5]; Test group 2: 40 mg/kg Bw, 2 times/2 week for 16 weeks, 16 Weeks, p < 0.0001): 0/70****
Positive fishes (beko cyst) / fishes sampled ([5]; Test group 2: 40 mg/kg Bw, 2 times/2 week for 16 weeks, 24 Weeks (8 weeks after termination), p < 0.0001, 40 mg/kg): 1/50****
Positive fishes (beko cyst) / fishes sampled ([5]; Test group 2: 40 mg/kg Bw, 2 times/2 week for 16 weeks, 24 Weeks (8 weeks after termination), p < 0.0001, listed as albendazole, 40 mg/kg): significant suppression of generation of the beko cyst
Positive fishes (beko cyst) / fishes sampled ([5]; Test group 2: 40 mg/kg Bw, 2 times/2 week for 16 weeks, at administration start time): 0/20
Positive fishes (beko cyst) / fishes sampled ([6]; 8 Weeks, p < 0.01, 40 mg/kg): 1/50**
Positive fishes (beko cyst) / fishes sampled ([6]; 8 Weeks, p < 0.01, listed as albendazole, 40 mg/kg): significantly suppressed generation of the beko cyst
Positive fishes (beko cyst) / fishes sampled ([6]; at administration start time): 1/20
Infection rate (beko cyst, beko disease; 10 Days): 60%
Number of positive fishes (beko cyst, beko disease; 10 Days, 10 samples): 6
Number of positive fishes (beko cyst, beko disease; 21 Days, 63 samples): 28
Infection rate (beko cyst, beko disease; 21 Days, p < 0.01, 50 mg/kg): 44.4%**
Infection rate (beko cyst, beko disease; 21 Days, p < 0.01, listed as albendazole, 50 mg/kg): 44.4%
Infection rate (beko cyst, beko disease; at administration start time): 100%
Number of positive fishes (beko cyst, beko disease; at administration start time, 10 samples): 10
Antimicrobial activity against microsporidia (microsporidia): high antimicrobial activity
